In the supplement of paper PMC10307832:

How the values were obtained:
Test in all cases: relative viability (nuclei count vs DMSO), 5 days (fraction); higher = more cells survive
HCC-15 = tested on: HCC-15
Method in brief: (§1)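 Relative viability equals treated-well nuclei counts divided by vehicle-well nuclei counts. Counts came from 4× images of lung cancer cell lines grown in 1536-well plates for 5 days after pin-tool dosing on the day after seeding. Dosing used one drug alone or a fixed anchor-drug dose plus five library-drug doses (not always all listed) in √10 steps, and values are medians of duplicate plates.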

LOU-NH91 = tested on: LOU-NH91
Method in brief: as §1

NCI-H1755 = tested on: NCI-H1755
Method in brief: as §1

HCC-366 = tested on: HCC-366
Method in brief: as §1

NCI-H838 = tested on: NCI-H838
Method in brief: as §1

NCI-H460 = tested on: NCI-H460
Method in brief: as §1

CAL-12T = tested on: CAL-12T
Method in brief: as §1

NCI-H1355 = tested on: NCI-H1355
Method in brief: as §1

NCI-H441 = tested on: NCI-H441
Method in brief: as §1

NCI-H358 = tested on: NCI-H358
Method in brief: as §1

NCI-H1975 = tested on: NCI-H1975
Method in brief: as §1

BEN = tested on: BEN
Method in brief: as §1

NCI-H1650 = tested on: NCI-H1650
Method in brief: as §1

NCI-H2085 = tested on: NCI-H2085
Method in brief: as §1

EKVX = tested on: EKVX
Method in brief: as §1

NCI-H1734 = tested on: NCI-H1734
Method in brief: as §1

NCI-H1395 = tested on: NCI-H1395
Method in brief: as §1

NCI-H1437 = tested on: NCI-H1437
Method in brief: as §1

HCC-44 = tested on: HCC-44
Method in brief: as §1

LCLC-103H = tested on: LCLC-103H
Method in brief: as §1

NCI-H2342 = tested on: NCI-H2342
Method in brief: as §1

NCI-H1651 = tested on: NCI-H1651
Method in brief: as §1

NCI-H2023 = tested on: NCI-H2023
Method in brief: as §1

## COc1cc(N2CCC(C(N)=O)CC2)ccc1Nc1nc(N)c(Cl)c(Nc2ccccc2S(=O)(=O)C(C)C)n1 [HG-5-88-01] + CC(=O)c1c(C)c2cnc(Nc3ccc(N4CCNCC4)cn3)nc2n(C2CCCC2)c1=O [Palbociclib] (partner 0.5 µM)
HCC-15; first compound 0.04 µM
  relative viability: 0.772
HCC-15; first compound 0.1265 µM
  relative viability: 0.792
HCC-15; first compound 0.4 µM
  relative viability: 0.643
HCC-15; first compound 1.265 µM
  relative viability: 0.724
HCC-15; first compound 4 µM
  relative viability: 0.432
LOU-NH91; first compound 0.04 µM
  relative viability: 0.533
LOU-NH91; first compound 0.1265 µM
  relative viability: 0.491
LOU-NH91; first compound 0.4 µM
  relative viability: 0.585
LOU-NH91; first compound 1.265 µM
  relative viability: 0.509
LOU-NH91; first compound 4 µM
  relative viability: 0.55
NCI-H1755; first compound 0.04 µM
  relative viability: 0.42
NCI-H1755; first compound 0.1265 µM
  relative viability: 0.494
NCI-H1755; first compound 0.4 µM
  relative viability: 0.485
NCI-H1755; first compound 1.265 µM
  relative viability: 0.419
NCI-H1755; first compound 4 µM
  relative viability: 0.455
HCC-366; first compound 0.04 µM
  relative viability: 0.397
HCC-366; first compound 0.1265 µM
  relative viability: 0.41
HCC-366; first compound 0.4 µM
  relative viability: 0.356
HCC-366; first compound 1.265 µM
  relative viability: 0.41
HCC-366; first compound 4 µM
  relative viability: 0.465
NCI-H838; first compound 0.04 µM
  relative viability: 0.189
NCI-H838; first compound 0.1265 µM
  relative viability: 0.207
NCI-H838; first compound 0.4 µM
  relative viability: 0.173
NCI-H838; first compound 1.265 µM
  relative viability: 0.177
NCI-H838; first compound 4 µM
  relative viability: 0.168
NCI-H460; first compound 0.04 µM
  relative viability: 0.171
NCI-H460; first compound 0.1265 µM
  relative viability: 0.155
NCI-H460; first compound 0.4 µM
  relative viability: 0.0931
NCI-H460; first compound 1.265 µM
  relative viability: 0.247
NCI-H460; first compound 4 µM
  relative viability: 0.274
CAL-12T; first compound 0.04 µM
  relative viability: 0.509
CAL-12T; first compound 0.1265 µM
  relative viability: 0.552
CAL-12T; first compound 0.4 µM
  relative viability: 0.405
CAL-12T; first compound 1.265 µM
  relative viability: 0.214
CAL-12T; first compound 4 µM
  relative viability: 0.211
NCI-H1355; first compound 0.04 µM
  relative viability: 0.4
NCI-H1355; first compound 0.1265 µM
  relative viability: 0.394
NCI-H1355; first compound 0.4 µM
  relative viability: 0.426
NCI-H1355; first compound 1.265 µM
  relative viability: 0.338
NCI-H1355; first compound 4 µM
  relative viability: 0.362
NCI-H441; first compound 0.04 µM
  relative viability: 0.209
NCI-H441; first compound 0.1265 µM
  relative viability: 0.202
NCI-H441; first compound 0.4 µM
  relative viability: 0.146
NCI-H441; first compound 1.265 µM
  relative viability: 0.152
NCI-H441; first compound 4 µM
  relative viability: 0.172
NCI-H358; first compound 0.04 µM
  relative viability: 0.139
NCI-H358; first compound 0.1265 µM
  relative viability: 0.131
NCI-H358; first compound 0.4 µM
  relative viability: 0.118
NCI-H358; first compound 1.265 µM
  relative viability: 0.0962
NCI-H358; first compound 4 µM
  relative viability: 0.0785
NCI-H1975; first compound 0.04 µM
  relative viability: 0.597
NCI-H1975; first compound 0.1265 µM
  relative viability: 0.643
NCI-H1975; first compound 0.4 µM
  relative viability: 0.464
NCI-H1975; first compound 1.265 µM
  relative viability: 0.538
NCI-H1975; first compound 4 µM
  relative viability: 0.425
BEN; first compound 0.04 µM
  relative viability: 0.451
BEN; first compound 0.1265 µM
  relative viability: 0.461
BEN; first compound 0.4 µM
  relative viability: 0.409
BEN; first compound 1.265 µM
  relative viability: 0.465
BEN; first compound 4 µM
  relative viability: 0.411
NCI-H1650; first compound 0.04 µM
  relative viability: 0.342
NCI-H1650; first compound 0.1265 µM
  relative viability: 0.391
NCI-H1650; first compound 0.4 µM
  relative viability: 0.327
NCI-H1650; first compound 1.265 µM
  relative viability: 0.298
NCI-H1650; first compound 4 µM
  relative viability: 0.223
NCI-H2085; first compound 0.04 µM
  relative viability: 0.474
NCI-H2085; first compound 0.1265 µM
  relative viability: 0.485
NCI-H2085; first compound 0.4 µM
  relative viability: 0.458
NCI-H2085; first compound 1.265 µM
  relative viability: 0.465
NCI-H2085; first compound 4 µM
  relative viability: 0.552
EKVX; first compound 0.04 µM
  relative viability: 0.507
EKVX; first compound 0.1265 µM
  relative viability: 0.425
EKVX; first compound 0.4 µM
  relative viability: 0.389
EKVX; first compound 4 µM
  relative viability: 0.293
NCI-H1734; first compound 0.04 µM
  relative viability: 0.367
NCI-H1734; first compound 0.1265 µM
  relative viability: 0.301
NCI-H1734; first compound 0.4 µM
  relative viability: 0.326
NCI-H1734; first compound 1.265 µM
  relative viability: 0.33
NCI-H1734; first compound 4 µM
  relative viability: 0.312
NCI-H1395; first compound 0.04 µM
  relative viability: 0.593
NCI-H1395; first compound 0.1265 µM
  relative viability: 0.754
NCI-H1395; first compound 0.4 µM
  relative viability: 0.613
NCI-H1395; first compound 1.265 µM
  relative viability: 0.474
NCI-H1395; first compound 4 µM
  relative viability: 0.664
NCI-H1437; first compound 0.04 µM
  relative viability: 0.372
NCI-H1437; first compound 0.1265 µM
  relative viability: 0.299
NCI-H1437; first compound 0.4 µM
  relative viability: 0.271
NCI-H1437; first compound 1.265 µM
  relative viability: 0.28
NCI-H1437; first compound 4 µM
  relative viability: 0.243
HCC-44; first compound 0.04 µM
  relative viability: 0.983
HCC-44; first compound 0.1265 µM
  relative viability: 0.957
HCC-44; first compound 0.4 µM
  relative viability: 0.864
HCC-44; first compound 1.265 µM
  relative viability: 0.954
HCC-44; first compound 4 µM
  relative viability: 0.943
LCLC-103H; first compound 0.04 µM
  relative viability: 0.48
LCLC-103H; first compound 0.1265 µM
  relative viability: 0.48
LCLC-103H; first compound 0.4 µM
  relative viability: 0.443
LCLC-103H; first compound 1.265 µM
  relative viability: 0.504
LCLC-103H; first compound 4 µM
  relative viability: 0.445
NCI-H2342; first compound 0.04 µM
  relative viability: 0.557
NCI-H2342; first compound 0.1265 µM
  relative viability: 0.54
NCI-H2342; first compound 0.4 µM
  relative viability: 0.471
NCI-H2342; first compound 4 µM
  relative viability: 0.539
NCI-H1651; first compound 0.04 µM
  relative viability: 0.571
NCI-H1651; first compound 0.1265 µM
  relative viability: 0.51
NCI-H1651; first compound 0.4 µM
  relative viability: 0.517
NCI-H1651; first compound 1.265 µM
  relative viability: 0.458
NCI-H1651; first compound 4 µM
  relative viability: 0.616
NCI-H2023; first compound 0.04 µM
  relative viability: 0.343
NCI-H2023; first compound 0.1265 µM
  relative viability: 0.355
NCI-H2023; first compound 0.4 µM
  relative viability: 0.287
NCI-H2023; first compound 1.265 µM
  relative viability: 0.259
NCI-H2023; first compound 4 µM
  relative viability: 0.212
